Here are results for 10 compounds from patent US20040018253A1, “Use of CYP2D6 inhibitors in combination therapies” (priority 1999, published 2004).

Structures are written as SMILES. Read-outs that look alike come from different tables or passages of the source.

Data set [1] deals with T1, CYP2D6 (Homo sapiens, UniProt P10635). Nature of the data set: CYP2D6 catalyzed metabolism, Michaelis-Menten KM.
The nature of data set [2]: Human pharmacokinetics of CYP2D6 substrates (half-life, oral bioavailability, hepatic extraction).
The conditions of data set [3]: after oral administration of imipramine; extensive metabolizers; cited from earlier work.
The next data set has as its system CYP. The settings on record: cited from earlier work.
Data set [4] deals with T1, CYP2D6.
For data set [5] the following is noted: in vivo.
The target in data set [6] is T1, CYP2D6. The settings on record: in vivo, via inhibition of CYP2D6; cited from earlier work.
For data set [7] the following is noted: increasing dose; not observed in poor metabolizers; cited from earlier work.

T1 sequence (P10635 whole entry): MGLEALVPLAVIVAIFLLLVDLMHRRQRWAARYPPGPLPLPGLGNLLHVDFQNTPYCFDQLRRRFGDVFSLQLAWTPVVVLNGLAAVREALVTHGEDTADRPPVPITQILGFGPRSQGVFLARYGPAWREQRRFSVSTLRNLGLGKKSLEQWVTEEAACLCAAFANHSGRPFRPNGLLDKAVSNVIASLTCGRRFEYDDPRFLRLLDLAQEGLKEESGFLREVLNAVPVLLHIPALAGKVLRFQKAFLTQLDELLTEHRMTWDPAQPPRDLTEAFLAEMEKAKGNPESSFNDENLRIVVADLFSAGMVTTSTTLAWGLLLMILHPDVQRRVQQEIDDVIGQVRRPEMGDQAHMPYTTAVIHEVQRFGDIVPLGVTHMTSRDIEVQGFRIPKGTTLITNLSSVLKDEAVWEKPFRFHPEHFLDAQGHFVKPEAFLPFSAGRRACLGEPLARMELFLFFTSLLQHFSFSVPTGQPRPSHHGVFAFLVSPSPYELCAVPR

For `C[C@@H]([C@@H](O)c1ccc(O)cc1)N1CCC(O)(c2ccccc2)CC1` [(1S,2S)-1-(4-hydroxyphenyl)-2-(4-hydroxy-4-phenylpiperidin-1-yl)-1-propanol], the Km on CYP2D6 [1] (human) fell in the range of 3 to 4 µM. The compound also came in with a half-life in data set [2] (in vivo) of 3 to 4 h.

Consider `CN(C)CCCN1c2ccccc2CCc2ccccc21` [imipramine], for which the “range of steady state plasma concentrations” value in data set [3] is on record as 20 fold.

As to `Cc1cc(O)c2c(=O)c3c(O)cc(O)c4c5c(O)cc(O)c6c(=O)c7c(O)cc(C)c8c1c2c(c34)c(c78)c65` [hypericin], the CYP inhibitory activity result with CYP is recorded as “exhibit CYP inhibitory activity”.

As to `O=C1CCC(=O)N1C[C@H]1CC[C@H]2CN(c3ncccn3)CCN2C1` [sunipetron, (7S,9S)-2-(2-pyrimidyl)-7-(succinamidomethyl)-prehydro-1H-pyrido-[1,2-a]pyrazine], the Michaelis-Menten constant (Km) on CYP2D6 [1] (CYP2D6 substrate) was about 1 µM. This compound registered a human oral bioavailability in data set [2] (oral) of 4.6%.

With `COc1ccccc1CN[C@H]1CCCN[C@H]1c1ccccc1` [(2S,3S)-2-phenyl-3-(2-methoxyphenyl)-methylaminopiperidine], on CYP2D6 [4], the Km is about 1 µM. Moreover, in data set [5] (human), the human half-life entry was “about 4.7 hours”. The compound also had a human oral bioavailability in data set [5] (human, po) of 1.0%. Besides, the hepatic extraction result in data set [5] (iv) is recorded as “exceeds 90%”.

For the compound `O=c1c(O)c(-c2ccc(O)c(O)c2)oc2cc(O)cc(O)c12` [quercetin], the CYP inhibitory activity entry in the data set with CYP is “exhibit CYP inhibitory activity”.

Regarding `O=c1c(-c2c(O)cc(O)c3c(=O)cc(-c4ccc(O)cc4)oc23)c(-c2ccc(O)cc2)oc2cc(O)cc(O)c12` [I3, II8-biapigenin], in the data set with CYP, the CYP inhibitory activity entry is “exhibit CYP inhibitory activity”.

For `C=C[C@H]1C[N@@]2CC[C@H]1C[C@@H]2[C@@H](O)c1ccnc2ccc(OC)cc12` [quinidine], the “effect on metabolizer phenotype” value at CYP2D6 [6] is recorded as “converting an extensive metabolizer to the poor metabolizer phenotype”.

Regarding `CNCCCN1c2ccccc2CCc2ccccc21` [desipramine], the “range of steady state plasma concentrations” value in data set [3] is recorded as 20 fold.

In the case of `Fc1ccc([C@@H]2CCNC[C@H]2COc2ccc3c(c2)OCO3)cc1` [paroxetine], the dose-exposure relationship entry in data set [7] was “supraproportional”.

For orientation: Km means the concentration of substrate that gives half-maximal velocity. By half-life is commonly meant how long it takes for the measured level to halve. The low end stands for fast loss, the high end for slow loss.
